BigSolDB 2.1

CC[C@@H](C(=O)[C@@H](C)[C@@H](O)[C@H](C)CCc1ccc(C)c(O)c1C(=O)[O-])[C@H]1O[C@](CC)([C@H]2CC[C@](O)(CC)[C@H](C)O2)C[C@@H]1C.[Na+]
solubility (mole fraction)
Settings	283.15 K	288.15 K	293.15 K	298.15 K	303.15 K	308.15 K	313.15 K	318.15 K	323.15 K
in acetone	0.0117	0.0119	0.0121	0.0123	0.0125	0.0127	0.0129	0.0132	0.0135
in ethanol	0.00223	0.00246	0.0026	0.00311	0.00364	0.00419	0.00456	0.00502	0.00564
in ethyl acetate	0.00531	0.00538	0.00548	0.00556	0.00566	0.00575	0.00587	0.00596	0.00602
in isopropanol	0.00085	0.00095	0.00106	0.00117	0.00136	0.00161	0.00191	0.00211	0.00233
in methanol	0.00259	0.00293	0.0031	0.00352	0.00391	0.00413	0.00456	0.00508	0.00577
